Measured values from US7612064B2, “Sulfopyrroles” (Takeda Pharmaceutical Company Limited, priority 2003, dated 2009).

Columns and labels:
[1] = test system: HeLa; assay: PI staining for cell cycle distribution; format: cell-based, human; parameters: key: 0: no effect; 1: weak effect; 2: strong effect; details: HeLa 10μM, 48 h
Method: (§1) 1-2*10^5 cells are seeded into 24 well tissue culture plates and incubated for 24 h prior to compound addition. […] Adherent cells are harvested by trypsinization. The cell suspensions are fixed by adding 2 parts ice cold ethanol 100% while vortexing. Then the samples are stored for>2 h at −20° C. Subsequently the cells are washed with PBS once and resuspended in 250 μl PBS containing 50 μg/ml PI (Calbiochem # 537059), then the samples are incubated at 37° C. for 30 min and subsequently analyzed on a FACSCalibur™ monitoring linear PI fluorescence activity on FL2. The readout allows the detection of a possible direct or indirect influence of the tested compounds on the cell cycle. The following events can occur: a) Generation of a subG1 peak indicative for DNA fragmentation, b) increase of the cell population arrested in G2M phase. Both events are scored by 1 for weak and 2 for strong occurrence. 0 indicates no occurrence at all.

[2] = test system: Jurkat; assay: PI staining for cell cycle distribution; format: cell-based, human; parameters: key: 0: no effect; 1: weak effect; 2: strong effect; details: Jurkat 3μM, 48 h
Method: as §1

[3] = test system: HeLa; assay: MTS proliferation assay; format: cell-based, human; details: 72 h
In short: (§2)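 Compounds at final 10/3/1/0.3 μM (added in complete medium, ≤5% DMSO); 72 h, culture conditions; + MTS, 3 h; A492.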

[4] = test system: Jurkat; assay: MTS proliferation assay; format: cell-based, human; details: 72 h
In short: as §2

[5] = Hoechst 33342 nuclear staining; format: cell-based; details: 24 h or 48 h incubation; for Hoechst 33342 nuclear staining score, H460: H460 cells; for Hoechst 33342 nuclear staining score, HeLa: HeLa cells; for Hoechst 33342 nuclear staining score, Jily: Jily cells; for Hoechst 33342 nuclear staining score, Jurkat: Jurkat cells; for Hoechst 33342 nuclear staining score, MRC5: MRC5 cells;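 as to all read-outs here: apoptotic nuclei scored 0 none 1 weak under 50% of cells 2 strong over 50% of cells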
In short: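 After a further 30 min incubation, plates were inspected on a standard inverted fluorescence microscope. The fraction of apoptotic nuclei and other apoptosis-specific morphology were scored as 0 for no activity, 1 for weak activity in less than 50% of the cells, and 2 for strong activity in more than 50% of the cells.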

[6] = test system: Jily; assay: MTS proliferation assay; format: cell-based; details: 72 h
In short: as §2

[7] = test system: MRC5; assay: MTS proliferation assay; format: cell-based; details: MRC5, 72 h
In short: as §2

[8] = conc 0.1 (final concentrations in μM)
[9] = conc 0.3 (final concentrations in μM)
[10] = conc 1 (final concentrations in μM)
[11] = conc 3 (final concentrations in μM)

Compound: COc1cc(-c2cc(-c3cncc(C(N)=O)c3)cn2S(=O)(=O)c2ccc(C)cc2)cc(OC)c1OC [Example 56]
- PI staining for cell cycle distribution, G2M [1]: 2
- PI staining for cell cycle distribution, subG1 [1]: 0
- PI staining for cell cycle distribution, G2M [2]: 1
- PI staining for cell cycle distribution, subG1 [2]: 0
- IC50 [3]: < 1000 nM
- IC50 [4]: < 200 nM
- Hoechst 33342 nuclear staining score, H460 [5, 8]: 0
- Hoechst 33342 nuclear staining score, H460 [5, 9]: 2 (strong activity comprising more than 50% of the cells)
- Hoechst 33342 nuclear staining score, H460 [5, 10]: 2 (strong activity comprising more than 50% of the cells)
- Hoechst 33342 nuclear staining score, H460 [5, 11]: 2 (strong activity comprising more than 50% of the cells)
- Hoechst 33342 nuclear staining score, HeLa [5, 8]: 0
- Hoechst 33342 nuclear staining score, HeLa [5, 9]: 0
- Hoechst 33342 nuclear staining score, HeLa [5, 10]: 2 (strong activity comprising more than 50% of the cells)
- Hoechst 33342 nuclear staining score, HeLa [5, 11]: 2 (strong activity comprising more than 50% of the cells)
- Hoechst 33342 nuclear staining score, Jily [5, 8]: 0
- Hoechst 33342 nuclear staining score, Jily [5, 9]: 2 (strong activity comprising more than 50% of the cells)
- Hoechst 33342 nuclear staining score, Jily [5, 10]: 2 (strong activity comprising more than 50% of the cells)
- Hoechst 33342 nuclear staining score, Jily [5, 11]: 2 (strong activity comprising more than 50% of the cells)
- Hoechst 33342 nuclear staining score, Jurkat [5, 8]: 0
- Hoechst 33342 nuclear staining score, Jurkat [5, 9]: 2 (strong activity comprising more than 50% of the cells)
- Hoechst 33342 nuclear staining score, Jurkat [5, 10]: 2 (strong activity comprising more than 50% of the cells)
- Hoechst 33342 nuclear staining score, Jurkat [5, 11]: 2 (strong activity comprising more than 50% of the cells)
- Hoechst 33342 nuclear staining score, MRC5 [5, 8]: 0
- Hoechst 33342 nuclear staining score, MRC5 [5, 9]: 2 (strong activity comprising more than 50% of the cells)
- Hoechst 33342 nuclear staining score, MRC5 [5, 10]: 2 (strong activity comprising more than 50% of the cells)
- Hoechst 33342 nuclear staining score, MRC5 [5, 11]: 2 (strong activity comprising more than 50% of the cells)
- Hoechst 33342 nuclear staining score, PBLs [5, 8]: 0
- Hoechst 33342 nuclear staining score, PBLs [5, 9]: 0
- Hoechst 33342 nuclear staining score, PBLs [5, 10]: 0
- Hoechst 33342 nuclear staining score, PBLs [5, 11]: 0
- IC50 [6]: < 1000 nM
- IC50 [7]: < 1000 nM
